Like-named read-outs stand apart in the source and are kept apart here.
Columns and labels:
IKK-alpha = IKK-alpha (Homo sapiens, UniProt O15111); experiment: KINOMEscan: IKK-alpha; assay type: binding; settings: 1000 nM, read-out: Percent Control
LRRK2 = LRRK2 (Homo sapiens, UniProt Q5S007); experiment: KINOMEscan: LRRK2; assay type: binding; settings: 1000 nM, read-out: Percent Control
WNK4 = WNK4 (Homo sapiens, UniProt Q96J92); experiment: KINOMEscan: WNK4; assay type: binding; settings: 100 nM, read-out: Percent Control
Purinergic P2Y = experiment: Eurofins Diversity Panel; assay type: binding; settings: rat, Conc. 10 μM
FLT3(N841I) = FLT3(N841I) (Homo sapiens, UniProt P36888, N841I); experiment: KINOMEscan: FLT3(N841I); assay type: binding; settings: 1000 nM, read-out: Percent Control
Dopamine D3 = Dopamine D3 (Homo sapiens, UniProt P35462); experiment: Eurofins Diversity Panel; assay type: binding; settings: hum, Conc. 10 μM
Calcium Channel N-Type = Calcium Channel N-Type (Rattus norvegicus, UniProt Q02294); experiment: Eurofins Diversity Panel; assay type: binding; settings: Conc. 10 μM
LTK = LTK (Homo sapiens, UniProt P29376); experiment: KINOMEscan: LTK; assay type: binding; settings: 1000 nM, read-out: Percent Control
α2B receptor = target: T1, α2B receptor (Homo sapiens, UniProt P18089); experiment: Eurofins Diversity Panel: adrenergic α2B receptor; assay type: binding
T1 construct: purchased Eurofins

ASK2 = ASK2 (Homo sapiens, UniProt O95382); experiment: KINOMEscan: ASK2; assay type: binding; settings: 1000 nM, read-out: Percent Control
LOK = LOK (Homo sapiens, UniProt O94804); experiment: KINOMEscan: LOK; assay type: binding; settings: 1000 nM, read-out: Percent Control
CLK1 = CLK1 (Homo sapiens, UniProt P49759); experiment: KINOMEscan: CLK1; assay type: binding; settings: 1000 nM, read-out: Percent Control
TNNI3K = TNNI3K (Homo sapiens, UniProt Q59H18); experiment: KINOMEscan: TNNI3K; assay type: binding; settings: 100 nM, read-out: Percent Control
Chain of TNNI3K (Q59H18 whole entry): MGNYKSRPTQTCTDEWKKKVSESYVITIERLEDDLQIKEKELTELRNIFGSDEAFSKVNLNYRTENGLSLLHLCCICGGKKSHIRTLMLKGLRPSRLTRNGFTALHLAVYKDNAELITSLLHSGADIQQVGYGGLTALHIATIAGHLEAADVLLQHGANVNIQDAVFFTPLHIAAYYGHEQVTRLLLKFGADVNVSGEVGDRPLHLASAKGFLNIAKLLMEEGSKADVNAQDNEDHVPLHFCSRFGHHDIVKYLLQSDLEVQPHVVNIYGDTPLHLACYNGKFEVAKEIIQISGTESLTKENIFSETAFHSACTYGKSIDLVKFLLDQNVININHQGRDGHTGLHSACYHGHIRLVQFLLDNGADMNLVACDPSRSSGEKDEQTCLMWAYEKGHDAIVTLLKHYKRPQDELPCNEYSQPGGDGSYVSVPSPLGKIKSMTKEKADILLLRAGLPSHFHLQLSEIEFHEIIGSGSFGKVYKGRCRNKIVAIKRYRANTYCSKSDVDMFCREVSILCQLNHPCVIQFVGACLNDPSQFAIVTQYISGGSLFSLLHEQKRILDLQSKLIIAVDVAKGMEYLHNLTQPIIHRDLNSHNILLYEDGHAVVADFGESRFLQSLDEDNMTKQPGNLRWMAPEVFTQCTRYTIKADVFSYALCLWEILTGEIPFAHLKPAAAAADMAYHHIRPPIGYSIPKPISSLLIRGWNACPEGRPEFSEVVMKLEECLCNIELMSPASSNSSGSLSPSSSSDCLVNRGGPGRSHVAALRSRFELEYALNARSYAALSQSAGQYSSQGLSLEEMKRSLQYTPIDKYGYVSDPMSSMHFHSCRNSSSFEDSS

TXK = TXK (Homo sapiens, UniProt P42681); experiment: KINOMEscan: TXK; assay type: binding; settings: 100 nM, read-out: Percent Control
Chain of TXK (P42681 whole entry): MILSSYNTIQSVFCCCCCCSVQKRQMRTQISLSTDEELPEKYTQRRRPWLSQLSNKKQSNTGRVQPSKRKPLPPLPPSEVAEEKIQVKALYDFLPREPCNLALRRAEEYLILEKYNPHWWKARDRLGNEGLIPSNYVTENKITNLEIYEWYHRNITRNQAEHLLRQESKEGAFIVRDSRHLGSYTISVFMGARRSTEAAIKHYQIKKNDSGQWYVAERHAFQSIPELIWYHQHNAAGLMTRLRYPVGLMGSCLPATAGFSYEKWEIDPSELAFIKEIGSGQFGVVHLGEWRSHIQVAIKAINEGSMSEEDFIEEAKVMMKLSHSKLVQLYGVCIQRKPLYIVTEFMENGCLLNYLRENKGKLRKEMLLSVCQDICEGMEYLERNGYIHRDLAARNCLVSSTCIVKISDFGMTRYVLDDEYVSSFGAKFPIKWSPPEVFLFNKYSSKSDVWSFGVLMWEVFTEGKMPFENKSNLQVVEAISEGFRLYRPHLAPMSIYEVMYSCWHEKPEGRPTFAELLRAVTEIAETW

Adenosine A3 = Adenosine A3 (Homo sapiens, UniProt P0DMS8); experiment: Eurofins Diversity Panel; assay type: binding; settings: hum, Conc. 10 μM
Chain of Adenosine A3 (P0DMS8 whole entry): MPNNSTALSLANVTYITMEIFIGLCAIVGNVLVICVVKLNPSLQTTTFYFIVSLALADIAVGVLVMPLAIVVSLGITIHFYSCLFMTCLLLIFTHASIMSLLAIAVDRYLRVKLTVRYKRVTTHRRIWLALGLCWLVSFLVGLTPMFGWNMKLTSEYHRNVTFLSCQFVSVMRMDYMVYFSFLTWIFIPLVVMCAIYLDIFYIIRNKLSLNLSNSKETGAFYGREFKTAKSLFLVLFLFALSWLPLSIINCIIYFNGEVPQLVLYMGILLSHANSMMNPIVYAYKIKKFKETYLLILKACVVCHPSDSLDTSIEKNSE

PFPK5(P.falciparum) = PFPK5(P.falciparum) (Plasmodium falciparum, UniProt P61075); experiment: DiscoverX KINOMEscan kinase profiling; assay type: binding; settings: kinase PFPK5(P.falciparum) (Entrez MAL13P1.279); compound concentration 1000 nM; read-out: Percent Control
CSNK2A1 = CSNK2A1 (Homo sapiens, UniProt P68400); experiment: KINOMEscan: CSNK2A1; assay type: binding; settings: 1000 nM, read-out: Percent Control
Chain of CSNK2A1 (P68400 whole entry): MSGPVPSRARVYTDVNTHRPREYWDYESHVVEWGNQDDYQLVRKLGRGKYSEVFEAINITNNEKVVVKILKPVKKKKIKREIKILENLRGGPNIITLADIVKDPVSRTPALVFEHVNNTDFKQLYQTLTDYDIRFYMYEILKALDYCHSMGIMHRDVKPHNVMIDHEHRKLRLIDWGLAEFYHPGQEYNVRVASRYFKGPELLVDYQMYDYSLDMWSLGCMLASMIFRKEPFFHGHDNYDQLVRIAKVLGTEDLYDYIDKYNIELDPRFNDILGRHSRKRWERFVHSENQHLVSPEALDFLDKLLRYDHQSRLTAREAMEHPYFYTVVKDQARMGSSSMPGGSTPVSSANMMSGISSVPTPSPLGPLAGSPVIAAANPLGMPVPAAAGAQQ

IKK-beta = IKK-beta (Homo sapiens, UniProt O14920); experiment: KINOMEscan: IKK-beta; assay type: binding; settings: 1000 nM, read-out: Percent Control
BMPR2 = BMPR2 (Homo sapiens, UniProt Q13873); experiment: KINOMEscan: BMPR2; assay type: binding; settings: 1000 nM, read-out: Percent Control
Chain of BMPR2 (Q13873 27-1038): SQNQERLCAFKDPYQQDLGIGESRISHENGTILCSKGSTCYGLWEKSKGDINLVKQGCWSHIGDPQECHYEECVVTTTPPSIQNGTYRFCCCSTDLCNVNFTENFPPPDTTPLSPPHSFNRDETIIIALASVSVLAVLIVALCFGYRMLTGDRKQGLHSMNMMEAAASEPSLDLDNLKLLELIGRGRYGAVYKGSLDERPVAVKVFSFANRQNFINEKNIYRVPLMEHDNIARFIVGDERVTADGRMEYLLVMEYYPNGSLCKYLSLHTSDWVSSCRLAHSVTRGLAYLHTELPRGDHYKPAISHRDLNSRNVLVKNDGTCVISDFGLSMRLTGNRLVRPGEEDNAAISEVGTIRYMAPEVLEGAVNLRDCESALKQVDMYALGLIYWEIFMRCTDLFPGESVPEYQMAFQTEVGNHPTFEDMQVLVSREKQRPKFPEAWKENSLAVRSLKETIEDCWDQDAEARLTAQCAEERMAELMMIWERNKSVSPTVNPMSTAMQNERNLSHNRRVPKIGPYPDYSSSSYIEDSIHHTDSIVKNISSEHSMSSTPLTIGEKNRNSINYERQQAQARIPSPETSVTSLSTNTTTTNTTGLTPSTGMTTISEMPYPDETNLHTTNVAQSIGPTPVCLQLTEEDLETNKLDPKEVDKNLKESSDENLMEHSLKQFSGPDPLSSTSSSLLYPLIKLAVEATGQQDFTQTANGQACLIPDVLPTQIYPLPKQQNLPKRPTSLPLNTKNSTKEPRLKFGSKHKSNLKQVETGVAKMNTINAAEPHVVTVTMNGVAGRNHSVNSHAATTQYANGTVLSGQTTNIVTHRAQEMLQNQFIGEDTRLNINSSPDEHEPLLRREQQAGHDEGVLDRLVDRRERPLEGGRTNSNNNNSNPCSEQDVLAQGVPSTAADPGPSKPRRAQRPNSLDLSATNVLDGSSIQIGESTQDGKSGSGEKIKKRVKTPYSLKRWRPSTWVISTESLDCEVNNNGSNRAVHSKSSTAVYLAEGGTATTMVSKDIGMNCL

GSK3B = GSK3B (Homo sapiens, UniProt P49841); experiment: KINOMEscan: GSK3B; assay type: binding; settings: 1000 nM, read-out: Percent Control
[1] = target: RSK1(Kin.Dom.1-N-terminal) (Homo sapiens, UniProt Q15418); experiment: KINOMEscan: RSK1(Kin.Dom.1-N-terminal); assay type: binding; settings: 100 nM, read-out: Percent Control
[2] = target: CDK9 in complex with Cyclin T2 (Homo sapiens, UniProt P50750); experiment: NanoBRET target engagement assay (HEK293); assay type: cell-based
RET = RET (Homo sapiens, UniProt P07949); experiment: KINOMEscan: RET; assay type: binding; settings: 100 nM, read-out: Percent Control
Chain of RET (P07949 29-1114): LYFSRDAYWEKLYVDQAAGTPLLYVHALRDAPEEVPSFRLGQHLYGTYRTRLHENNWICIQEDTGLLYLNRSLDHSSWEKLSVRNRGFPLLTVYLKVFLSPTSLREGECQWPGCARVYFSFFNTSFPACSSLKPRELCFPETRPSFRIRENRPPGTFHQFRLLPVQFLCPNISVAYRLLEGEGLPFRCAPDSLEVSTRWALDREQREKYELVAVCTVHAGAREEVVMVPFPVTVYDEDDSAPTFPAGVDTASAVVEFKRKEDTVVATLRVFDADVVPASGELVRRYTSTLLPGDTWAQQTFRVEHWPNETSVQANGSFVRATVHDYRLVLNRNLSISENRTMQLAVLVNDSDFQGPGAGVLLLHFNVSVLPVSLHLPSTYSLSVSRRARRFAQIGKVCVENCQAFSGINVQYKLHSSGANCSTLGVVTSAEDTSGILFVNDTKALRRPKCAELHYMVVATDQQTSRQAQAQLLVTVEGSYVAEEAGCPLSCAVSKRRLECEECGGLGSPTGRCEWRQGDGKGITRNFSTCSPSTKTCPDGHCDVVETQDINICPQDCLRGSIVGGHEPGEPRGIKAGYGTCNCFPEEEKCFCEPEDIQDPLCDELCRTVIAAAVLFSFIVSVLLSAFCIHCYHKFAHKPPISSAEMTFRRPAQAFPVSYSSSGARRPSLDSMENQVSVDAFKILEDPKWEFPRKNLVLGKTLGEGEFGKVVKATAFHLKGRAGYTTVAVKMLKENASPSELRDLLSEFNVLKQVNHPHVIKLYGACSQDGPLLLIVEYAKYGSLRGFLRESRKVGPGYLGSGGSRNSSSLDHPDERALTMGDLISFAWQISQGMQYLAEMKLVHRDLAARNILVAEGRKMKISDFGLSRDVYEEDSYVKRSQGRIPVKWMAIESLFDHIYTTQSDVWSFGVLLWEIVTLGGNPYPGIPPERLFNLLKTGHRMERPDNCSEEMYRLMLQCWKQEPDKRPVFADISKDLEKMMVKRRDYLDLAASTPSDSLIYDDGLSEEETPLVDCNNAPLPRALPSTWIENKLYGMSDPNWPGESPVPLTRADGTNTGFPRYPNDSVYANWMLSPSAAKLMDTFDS

Sodium Channel, Site 2 = experiment: Eurofins Diversity Panel; assay type: binding; settings: rat, Conc. 10 μM
HUNK = HUNK (Homo sapiens, UniProt P57058); experiment: KINOMEscan: HUNK; assay type: binding; settings: 1000 nM, read-out: Percent Control
ERN1 = ERN1 (Homo sapiens, UniProt O75460); experiment: KINOMEscan: ERN1; assay type: binding; settings: 1000 nM, read-out: Percent Control
ERK1 = ERK1 (Homo sapiens, UniProt P27361); experiment: KINOMEscan: ERK1; assay type: binding; settings: 1000 nM, read-out: Percent Control
KIT-autoinhibited = KIT-autoinhibited (Homo sapiens, UniProt P10721); experiment: KINOMEscan: KIT-autoinhibited; assay type: binding; settings: 1000 nM, read-out: Percent Control
YANK1 = YANK1 (Homo sapiens, UniProt Q8WU08); experiment: KINOMEscan: YANK1; assay type: binding; settings: 100 nM, read-out: Percent Control
VEGFR2 = VEGFR2 (Homo sapiens, UniProt P35968); experiment: KINOMEscan: VEGFR2; assay type: binding; settings: 100 nM, read-out: Percent Control
ERK4 = ERK4 (Homo sapiens, UniProt P31152); experiment: KINOMEscan: ERK4; assay type: binding; settings: 1000 nM, read-out: Percent Control
CDKL5 = CDKL5 (Homo sapiens, UniProt O76039); experiment: KINOMEscan: CDKL5; assay type: binding; settings: 1000 nM, read-out: Percent Control
EGFR(T790M) = EGFR(T790M) (Homo sapiens, UniProt P00533, T790M); experiment: KINOMEscan: EGFR(T790M); assay type: binding; settings: 1000 nM, read-out: Percent Control
HIPK2 = HIPK2 (Homo sapiens, UniProt Q9H2X6); experiment: KINOMEscan: HIPK2; assay type: binding; settings: 1000 nM, read-out: Percent Control
HG-3 = experiment: MTS proliferation assay; assay type: cell-based
Melatonin MT1 = Melatonin MT1 (Homo sapiens, UniProt P48039); experiment: Eurofins Diversity Panel; assay type: binding; settings: hum, Conc. 10 μM
Chain of Melatonin MT1 (P48039 whole entry): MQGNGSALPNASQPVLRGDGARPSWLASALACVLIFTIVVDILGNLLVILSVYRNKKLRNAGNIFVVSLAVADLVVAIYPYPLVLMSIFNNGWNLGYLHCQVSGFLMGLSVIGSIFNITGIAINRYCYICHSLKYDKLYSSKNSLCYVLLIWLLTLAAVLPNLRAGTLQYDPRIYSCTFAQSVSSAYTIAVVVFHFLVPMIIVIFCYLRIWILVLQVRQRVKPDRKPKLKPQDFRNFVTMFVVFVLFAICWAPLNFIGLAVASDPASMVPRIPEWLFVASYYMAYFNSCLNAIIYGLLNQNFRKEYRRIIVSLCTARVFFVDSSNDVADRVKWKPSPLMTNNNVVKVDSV

GSK3β = GSK3β (Homo sapiens, UniProt P49841); experiment: NanoBRET target engagement assay (HEK293); assay type: cell-based
JNK2 = JNK2 (Homo sapiens, UniProt P45984); experiment: KINOMEscan: JNK2; assay type: binding; settings: 1000 nM, read-out: Percent Control
Chain of JNK2 (P45984 whole entry): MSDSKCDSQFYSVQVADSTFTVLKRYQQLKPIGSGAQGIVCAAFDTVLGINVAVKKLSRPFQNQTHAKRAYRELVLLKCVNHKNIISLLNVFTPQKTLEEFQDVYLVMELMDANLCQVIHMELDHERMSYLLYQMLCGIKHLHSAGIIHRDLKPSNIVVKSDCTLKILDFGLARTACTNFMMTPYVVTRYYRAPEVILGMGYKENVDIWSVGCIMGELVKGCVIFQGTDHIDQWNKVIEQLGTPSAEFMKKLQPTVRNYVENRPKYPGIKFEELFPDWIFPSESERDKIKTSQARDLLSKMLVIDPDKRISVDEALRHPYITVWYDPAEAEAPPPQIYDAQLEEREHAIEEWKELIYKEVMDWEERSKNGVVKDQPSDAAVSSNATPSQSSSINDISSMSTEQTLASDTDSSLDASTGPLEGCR

STK39 = STK39 (Homo sapiens, UniProt Q9UEW8); experiment: KINOMEscan: STK39; assay type: binding; settings: 100 nM, read-out: Percent Control
ITK = ITK (Homo sapiens, UniProt Q08881); experiment: KINOMEscan: ITK; assay type: binding; settings: 1000 nM, read-out: Percent Control
EPHB4 = EPHB4 (Homo sapiens, UniProt P54760); experiment: KINOMEscan: EPHB4; assay type: binding; settings: 1000 nM, read-out: Percent Control

COc1cc(F)ccc1-c1cc(Nc2cc(CS(C)(=N)=O)ccn2)ncc1F (stereo not drawn) [VIP152] was tested, and the remaining binding at 1 µM (IKK-alpha) was 93%, the remaining binding at 1 µM (LRRK2) was 50% and the remaining binding at 0.1 µM (WNK4) was 100%. The “% Inh.” value (Purinergic P2Y) was 8%, the remaining binding at 1 µM (FLT3(N841I)) was 54% and the inhibition at 10 µM (Dopamine D3) was 7%. The inhibition at 10 µM (Calcium Channel N-Type) was 4%, the remaining binding at 1 µM (LTK) was 100% and the IC50 (α2B receptor) was 1180 nM. The remaining binding at 1 µM (ASK2) was 91%, the remaining binding at 1 µM (LOK) was 53% and the remaining binding at 1 µM (CLK1) was 71%. For the same compound, the remaining binding at 0.1 µM (TNNI3K) was 100%, the remaining binding at 0.1 µM (TXK) was 100% and the inhibition at 10 µM (Adenosine A3) was 43%. The remaining binding at 1 µM (PFPK5(P.falciparum)) was 99%, the remaining binding at 1 µM (CSNK2A1) was 97% and the remaining binding at 1 µM (IKK-beta) was 100%. It also gave a remaining binding at 1 µM (BMPR2) of 93%, a remaining binding at 1 µM (GSK3B) of 11% and a remaining binding at 0.1 µM [1] of 100%. For the same compound, the “potency versus the other inhibitors” value [2] was “higher potency”, the remaining binding at 0.1 µM (RET) was 100% and the “% Inh.” value (Sodium Channel, Site 2) was 26%. The remaining binding at 1 µM (HUNK) was 100%, the remaining binding at 1 µM (ERN1) was 86% and the remaining binding at 1 µM (ERK1) was 82%. The remaining binding at 1 µM (KIT-autoinhibited) was 100%, the remaining binding at 0.1 µM (YANK1) was 100% and the remaining binding at 0.1 µM (VEGFR2) was 89%. The remaining binding at 1 µM (ERK4) was 99%, the remaining binding at 1 µM (CDKL5) was 90% and the remaining binding at 1 µM (EGFR(T790M)) was 94%. For the same compound, the remaining binding at 1 µM (HIPK2) was 71%, the IC50 (HG-3; Homo sapiens, 24, 48, and 72 h, read-out: proliferation IC50) was 50 to 67 nM and the IC50 (HG-3; Homo sapiens, two-hour drugging followed by washout, MTS after 72 h, read-out: 50% growth inhibition) was 970 nM. The inhibition at 10 µM (Melatonin MT1) was 6%, the “inhibitory capacity against GSK3β” value (GSK3β) was “Inhibits” and the remaining binding at 1 µM (JNK2) was 83%. For the same compound, the remaining binding at 0.1 µM (STK39) was 100%, the remaining binding at 1 µM (ITK) was 100% and the remaining binding at 1 µM (EPHB4) was 100%.

— PMC9898036, “VIP152 is a selective CDK9 inhibitor with pre-clinical in vitro and in vivo efficacy in chronic lymphocytic leukemia” (Leukemia, 2022)
